From patent publication US5780054A, “Methods for increasing the circulation half-life of protein-based therapeutics” (University of British Columbia, priority 1996, dated 1998)

What was measured:
[1] = mouse, in vivo; cited from earlier work
RES = conditions: in vivo; cited from earlier work
anti-ovalbumin IgG = assay: ELISA of plasma anti-ovalbumin IgG after 3 weekly i.v. injections (FIG. 3); type: in vivo, mouse (C3H/HeJ)
Procedure: Groups of four C3H/HeJ mice per experimental point were given the specified treatment as a single i.v. dose via a lateral tail vein. The injection, given in a volume of 200 μL, contained 50 μg of ovalbumin. In animals receiving control (protein free) liposomes, the dose was chosen based on the lipid dose given for the ovalbumin-coated liposome group. This lipid dose was approximately 45 mg/kg. In the groups receiving doxorubicin, the drug dose was approximately 8 mg/kg.
Microtitre plates (Flow Laboratories) were coated with 50 μL of 40 μg/mL ovalbumin and incubated at 4° C. overnight. The plates were washed twice (phosphate buffered saline containing 0.1% (vol/vol) TWEEN® 20) and then blocked with 2% bovine serum albumin (BSA) for 1 hour at 37° C. The plates were rinsed prior to addition of mouse plasma in a final volume of 100 μL (the extent to which the plasma was diluted depended on treatment group). […] Plates were incubated at room temperature for 30 min, washed, and the amount of plate associated β-galactosidase was determined. […] The amount of chlorophenol red produced was determined by measuring absorbance at 570 nm on a […] ® plate reader. Antibody levels were estimated on the basis of standard curves consisting of known quantities of a rabbit polyclonal anti-ovalbumin IgG (Cortex Biochemicals, Calif., USA). […]

Substance | maximum tolerated dose [1] | circulation lifetimes for the liposomal carrier (RES) | liposome accumulation in the liver (RES) | spleen and bone marrow cellularity (RES) | anti-ovalbumin IgG level (anti-ovalbumin IgG) [μg/mL plasma]
liposomal doxorubicin | greater than 60 mg doxorubicin/kg | significant increases | significant decreases | extended suppression | –
free ovalbumin: IMJECT® (ovalbumin) obtained from Pierce | – | – | – | – | 2.1
